Values of other authors as cited in patent US9402788B2, “Manufacture of multiple minicapsules” (Sigmoid Pharma Ltd., priority 2007, dated 2016).
Where a name gives a salt, the structure may show the parent alone. Values belong to the molecule of their own block, whether it stands above or below them.

Tests used:
[1] = after extrusion with EC/HM polymers; HPLC
[2] = HME film, clotrimazole 10% w/w

aqueous solubility: 50 mg/mL
SMILES: CC(C)NCC(O)COc1cccc2ccccc12 (centres unmarked) [propranolol HCl]

SMILES: Cn1c(=O)c2[nH]cnc2n(C)c1=O.O [theophylline monohydrate]
aqueous solubility: 8.33 mg/mL

ibuprofen amount remained after extrusion [1]: 98.9%
SMILES: CC(C)Cc1ccc(C(C)C(=O)O)cc1 (centres unmarked) [ibuprofen]

duration of prolonged release [2]: 10 h
duration of zero-order release [2]: 6 h
SMILES: Clc1ccccc1C(c1ccccc1)(c1ccccc1)n1ccnc1 [clotrimazole]
